Experiments:
[1] = Miscibility / solubility of the fluorinated compound in the oil (MCT, PFOB); format: physicochemical
Experimental: The emulsion of the invention comprises the semifluorinated compound and preferably the mid-chain triglyceride (MCT). According to one aspect of the invention the oil components of the emulsion form a homogeneous solution at 20° C. […] The oil phase may comprise further oil components such as long chain fatty acid triglycerides based on vegetable oil or marine oils such as fish oil. The amount of the further oil components is preferable adjusted that a completely miscible oil phase is maintained. Generally, the amount of oil components which are different from the semifluorinated compound and triglyceride b) which is preferably the MCT, are less than 50 weight percent (wt.-%), preferably less than 40 wt.-%, more preferably less than 30 wt.-%, further preferably less than 20 wt.-%, especially less than 10 wt.-%, in particular less than 5 wt.-% or essentially free, wherein the amount is based on the total weight of the oil components.
Perfluoroctylbromide (PFOB) is a known contrast agent for the magnetic resonance spectroscopy.

[2] = Density measurement of mixtures of MCT and F6H8; format: physicochemical; details: based on the total weight of the oil phase, FIG. 1C
Description: By adapting the density of the oil phase to the density of the aqueous phase coalescence phenomena of the droplets as well as sedimentation phenomena, which destabilize the emulsion, can be decreased.
At about 38.5 wt.-% of F6H8 and about 61.5 wt.-% of MCT, (weight based on the total weight of the oil phase) the density of the oil mixture corresponds to the density of the aqueous phase.

For `CCCCCCCCC(F)(F)C(F)(F)C(F)(F)C(F)(F)C(F)(F)C(F)(F)F` [Example F6H8, perfluorohexyloctane], the “miscibility with MCT” value ([1]; 20° C.) was “miscible at 20 °C” and the “share of F6H8 in the oil phase (rest MCT, about 61.5 wt.-%) at which the density of the oil mixture corresponds to the density of the aqueous phase” value [2] was “about 38.5 wt.-%”.

With `FC(F)(F)C(F)(F)C(F)(F)C(F)(F)C(F)(F)C(F)(F)C(F)(F)C(F)(F)Br` [PFOB, Perfluoroctylbromide] the “solubility in MCT” value [1] was “cannot be dissolved in MCT”.

In the case of `FC(F)(F)C(F)(F)C(F)(F)C(F)(F)C(F)(F)C(F)(F)C(F)(F)C(F)(F)C(F)(F)C(F)(F)Br` [PFDB, perfluorodecylbromide], the “solubility in PFOB” value [1] was “can be dissolved in PFOB”.
